Key:
MOR = settings: brain homogenates, inverse agonists; ref Wang et al., 2004; cited from earlier work
KOR = KOR (Mus musculus, UniProt P33534); assay: Antagonism of U69,593-stimulated [35S]GTPγS binding in WT striatum; type: biochemical

In the case of O=C1/C(=C/c2ccccc2)C[C@@]2(O)[C@H]3Cc4ccc(O)c5c4[C@@]2(CCN3CC2CC2)[C@H]1O5 [BNTX], the “suppression of MOR basal signaling activity” value (MOR) is listed as “less than 10%”.

With Oc1ccc2c3c1O[C@H]1c4[nH]c5c(c4C[C@@]4(O)[C@@H](C2)N(CC2CC2)CC[C@]314)C[C@@]1(O)[C@H]2Cc3ccc(O)c4c3[C@@]1(CCN2CC1CC1)[C@H]5O4 [NorBNI, Norbinaltorphimine] the IC50 (KOR) was 6 ± 1.6 nM, the “blockade of U69,593 stimulated G protein activation” value (KOR; antagonist 10 μM, increasing concentrations of U69,593, WT) was “fully blocks” and the “% competition” value (KOR; vs 10 μM U69,593, WT striatum, n=3) was 99 ± 7%.

Reference: paper PMC4655192 (Neuropharmacology, 2015)
